Test results as given in patent US20100273748A1, “ANTIMICROBIAL THERAPY” (priority 2006, published 2010).

Assays:
CD14 = assay: qPCR of CD14 mRNA in cultured keratinocytes; assay type: cell-based, human; conditions: 24 hours
Experimental: Cell culture and stimuli. Human keratinocytes were grown in serum-free EpiLife® cell culture media (Cascade Biologics; Portland, Oreg.) containing 0.06 mM Ca2+ and 1× EpiLife® defined growth supplement (EDGS) at 37° C. under standard tissue culture conditions. Stock cultures were maintained for up to five passages in this media with the addition of 50 U/mL penicillin and 50 μg/mL streptomycin. HaCaT keratinocytes were cultured in DMEM (Sigma, St. Louis, Mo.) with 10% FCS. Cells at 50-70% confluence were stimulated in fresh medium after preincubation with 1,25(OH)2 vitamin D3 (1,25D3; 0.1-100 nM, 4-24 h; Sigma). Alternatively, NHEK were stimulated in the presence of 1,25D3 (0.1-100 nM). Stimuli included TLR2,6 ligands Malp-2 (0.001-0.5 μg/ml; Alexis Biochemicals, Carlsbad, Calif.), FSL-1 (1-2 μg/ml, Invivogen, San Diego, Calif.) and zymosan (50 μg/ml; Invivogen), as well as flagellin (50 ng/ml; Alexis), LPS (1 μg/ml; Sigma), lipoteichoic acid (LTA; 10 μg/ml; Sigma), 19 kDA lipopeptide (10 μg/ml, a kind gift from S. Krutzik, Division of Dermatology, UCLA), CpG DNA (10 μg/ml; Sigma), Ca2+ (1.7 mM), LPS (1 μg/ml; Sigma), TNFα (20 ng/ml; Chemicon Temecula, Calif.) and TGFβ1 (0.1-1 μg/ml; R&D Systems, Minneapolis, Minn.). A TLR2 blocking antibody (αTLR2; clone TL2.1, 5 μg/ml, eBioscience, San Diego, Calif.) was utilized to investigate the role of TLR2 signaling. Furthermore, keratinocytes were pretreated with a vitamin D receptor antagonist (VDR-antagonist ZK159222 Schering AG; 10^-7M) or the CYP inhibitor itraconazole (ITRA; 10^-7M) before stimulation with TGFβ in the presence of 25OH vitamin D3 (25D3, 10 nM, Sigma).
Real-time RT-PCR (qPCR). RNA was extracted from cells, epidermal constructs or tissue using Trizol® and 1 μg RNA was reverse transcribed using iScript® (BioRad, Hercules, Calif.). Expression of cathelicidin and GAPDH was analysed by real-time RT-PCR. Predeveloped Taqman® assay probes (ABI, Foster City, Calif.) were used for the analyses of the expression of CYP24A1 (24-hydroxylase), CYP27B1 (1α-hydroxylase), CD14, CD36, TLR1, TLR2, TLR4, TLR6 and murine CD14. All analyses were performed in triplicate from 2-5 independent experiments in an ABI Prism® 7000 Sequence Detection System. Fold induction relative to the vehicle treated control in in vitro experiments was calculated using the comparative Ct method, where ΔΔCt is ΔCt(stimulant)-ΔCt(vehicle), ΔCt is Ct(gene)-Ct(GAPDH) and Ct is the cycle at which an arbitrary detection threshold is crossed. For quantification of transcript abundance in tissue samples target gene expression was normalized to GAPDH and compared to non-treated or non-injured skin.

CD14 protein = assay: Western blot of keratinocyte extracts; assay type: cell-based, human
Experimental: Western Blot. […] After centrifugation, equal amounts of protein were mixed with loading buffer (0.25M Tris HCL, 10% SDS, 10% glycerol, 5% β-mercaptoethanol) and loaded onto a 10% Tris-Tricine gel (GeneMate, Kaysville, Utah). After separation, proteins were blotted onto a PVDF membrane (Millipore, Billerica, Mass.) and blocked in 5% milk (BioRad) in TBS 0.1% Tween20 for 1 h at RT. After washings in TBS 0.1% Tween20, membranes were stained with a rabbit polyclonal anti-CD14 (Abcam, Cambridge, Mass.) or an anti TLR2 antibody (eBioscience), washed again in TBS 0.1% Tween20 and reprobed with a HRP-coupled goat anti-rabbit antibody (DakoCytomation, Glostrup, Denmark). Stained protein was visualized using the Western Lightning® system (Perkin Elmer, Boston, Mass.).

cathelicidin = assay: Cathelicidin protein immunostaining in NHEK; assay type: cell-based, human; conditions: butyrate (2 mM) and 1,25D3 (10^−8M), 24 hours
Experimental: Panel a: NHEKs were stimulated with 1,25D3 (10^−9-10^−7 M) in the presence of the HDAC inhibitor butyrate (BUT; 2 mM) for 24 hours. mRNA abundance was determined by real-time qPCR for cathelicidin and glyceraldehyde-3-phosphate dehydrogenase and normalized to vehicle-treated controls. […] Data shown are means (7SD) of the results from a single stimulation experiment performed in triplicates and are representative of at least three independent experiments (**P<0.01; ***P<0.001; two-way analysis of variance). Panel b: The HDAC inhibitor TSA (200 ng ml^−1) induces cathelicidin in the presence of 1,25D3 (10^−8M). Expression of cathelicidin is dependent on a functional VDR, as pretreatment with the VDR antagonist ZK159222 (10^−7 M) inhibits induction of cathelicidin with BUT (2 mM) in the presence of 1,25D3 (10^−8 M) after 24 hours. Expression of cathelicidin was determined by qPCR as described in Panel a. (*P<0.05; Student's t-test). […] Cells were stained with a polyclonal anti-LL-37 antibody (followed by an FITC-coupled secondary antibody) and nuclei detected with 4,6-diamidino-2-phenylindole (Bar=30 μM). […] NHEKs were stimulated with 1,25D3 (10^−8M) in combination with the HDAC inhibitor BUT (2 mM) for 24 hours, cells harvested and cell lysates co-incubated with S. aureus DmprF, and bacterial growth monitored over time to determine antimicrobial activity. […]

S. aureus DmprF = assay: Antimicrobial activity of keratinocyte lysates (bacterial growth, OD600); assay type: cell-based, Staphylococcus aureus
Experimental: Panel a: NHEKs were stimulated with 1,25D3 (10^−9-10^−7 M) in the presence of the HDAC inhibitor butyrate (BUT; 2 mM) for 24 hours. mRNA abundance was determined by real-time qPCR for cathelicidin and glyceraldehyde-3-phosphate dehydrogenase and normalized to vehicle-treated controls. […] Data shown are means (7SD) of the results from a single stimulation experiment performed in triplicates and are representative of at least three independent experiments (**P<0.01; ***P<0.001; two-way analysis of variance). Panel b: The HDAC inhibitor TSA (200 ng ml^−1) induces cathelicidin in the presence of 1,25D3 (10^−8M). Expression of cathelicidin is dependent on a functional VDR, as pretreatment with the VDR antagonist ZK159222 (10^−7 M) inhibits induction of cathelicidin with BUT (2 mM) in the presence of 1,25D3 (10^−8 M) after 24 hours. Expression of cathelicidin was determined by qPCR as described in Panel a. (*P<0.05; Student's t-test). Panel c: Increased transcript correlates with enhanced cathelicidin protein expression after HDAC inhibitor and 1,25D3 stimulation. NHEKs grown on chamber slides were stimulated with the vehicle, 1,25D3 (10^−8M), BUT (2 mM), or the combination for 24 hours. Cells were stained with a polyclonal anti-LL-37 antibody (followed by an FITC-coupled secondary antibody) and nuclei detected with 4,6-diamidino-2-phenylindole (Bar=30 μM). […] NHEKs were stimulated with 1,25D3 (10^−8M) in combination with the HDAC inhibitor BUT (2 mM) for 24 hours, cells harvested and cell lysates co-incubated with S. aureus DmprF, and bacterial growth monitored over time to determine antimicrobial activity. Media not containing cell lysates or containing cell lysates from unstimulated cells were used as controls.

acetylated histone H4 = assay: Histone H4 acetylation in keratinocytes (immunofluorescence, Western blot); assay type: cell-based, human; conditions: HDACi in the presence of 1,25D3
Experimental: Panel a; Immunofluorescence staining of acetylated histone H4 protein in NHEK treated with HDACi in the presence or absence of 1,25D3. […] Panel b: Western blot of acetylated histone 4 from keratinocytes treated with the HDACi butyrate or TLR agonists. […] Bar=30 μM.
The abundance of acetylated histone was directly measured to confirm the inhibitory effects of butyrate and TSA on HDACs. […] To determine if changes in histone acetylation occur upon stimulation of keratinocytes with TLR ligands NHEK were stimulated with different TLR ligands and histone acetylation was assessed.

C=C1/C(=C\C=C2/CCC[C@]3(C)[C@@H]([C@H](C)CCCC(C)(C)O)CC[C@@H]23)C[C@@H](O)C[C@@H]1O [1,25D3, 1,25(OH)2 vitamin D3]
CD14 mRNA expression (CD14; 1,25D3 100 nM, keratinocyte monolayers): increases expression | CD14 transcript abundance (CD14; 1,25D3 10^−8M): strongly upregulated | CD14 protein expression (Western blot) (CD14 protein; 1,25D3 100 nM, monolayer keratinocyte extracts): increases expression | CD14 protein expression (Western blot) (CD14 protein; 1,25D3 10^−8M and butyrate 2 mM, 24 hours): increase in CD14 protein expression | cathelicidin peptide expression (immunostaining) (cathelicidin): increase in cathelicidin peptide expression | suppression of S. aureus growth by protein extracts of treated cells (S. aureus DmprF; cells treated with 1,25D3 (10^−8M) and butyrate (2 mM), 24 hours): maximal ability to suppress the growth | antimicrobial activity of the agents themselves (S. aureus DmprF; without cell lysate): did not show antimicrobial activity | acetylation of histone H4 (acetylated histone H4): further increased
